Data on twelve compounds can be found in US11192889B2, “Tetrahydronaphthyridinepentanamide integrin antagonists” (The Rockefeller University, priority 2016, dated 2021).

What all share (assay type): cell-based
The subject of assay [1] is HEK-293-αVβ3 cells. Briefly: AP5 Binding Assay. The following applies: 10 mM EDTA; average±SD of 17 experiments. An excerpt:
(§1) HEK-293 Cells Expressing αVβ3. HEK-293 cells were transfected using lipofectamine 2000 (Invitrogen #11668030) with the cDNA for αV using the pEF1/V5-His A vector and the cDNA for β3 using the vector pcDNA3.1. Cells expressing αVβ3 were identified by their reaction with murine monoclonal antibodies (mAbs) LM609 and 7E3, and stable cell lines were established by repetitive sorting using LM609. […] HEK-293-αVβ3 cells for assays are counted in an automated cell counter (ADVIA 120) and adjusted to values appropriate for each assay.
(§2) AP5 Binding Assay. HEK-293-αVβ3 cells are harvested using 0.05% trypsin 0.5 mM EDTA, washed with HBMT once, and resuspended in HBMT containing 1 mM Mg2+ and 2 mM Ca2+. The cells are counted and adjusted to 0.5×10^6 cells per sample. The compound to be tested and fluorescently labeled mAb AP5 (either Alexa 488 or Alexa 674; 10 μg/mL) are added and incubated for 30 minutes at 37° C. The cells are then washed and analyzed by flow cytometry (BD FACSCalibur) at the appropriate wavelength for detecting the AP5 fluorophore. In each assay, cilengitide (1 μM) and 10 mM EDTA are included as positive controls and untreated cells are used as the negative control. The concentration of the test compound required to induce the expression of 50% of the AP5 expression induced by cilengitide is calculated and defined as the EC50. The EC50 for cilengitide was determined based on the expression induced by EDTA.

The target of assay [2] is T1, HEK-293-αVβ3 cells (Homo sapiens, UniProt P05106+P06756). Briefly: AP5 Binding Assay. The note with it: for activation at 10 µM: relative to AP5 expression induced by cilengitide, read-out: AP5 expression induced at the highest concentration; for EC50: concentration inducing 50% of the AP5 expression induced by 1 μM cilengitide.
T1 sequence (P05106 whole entry): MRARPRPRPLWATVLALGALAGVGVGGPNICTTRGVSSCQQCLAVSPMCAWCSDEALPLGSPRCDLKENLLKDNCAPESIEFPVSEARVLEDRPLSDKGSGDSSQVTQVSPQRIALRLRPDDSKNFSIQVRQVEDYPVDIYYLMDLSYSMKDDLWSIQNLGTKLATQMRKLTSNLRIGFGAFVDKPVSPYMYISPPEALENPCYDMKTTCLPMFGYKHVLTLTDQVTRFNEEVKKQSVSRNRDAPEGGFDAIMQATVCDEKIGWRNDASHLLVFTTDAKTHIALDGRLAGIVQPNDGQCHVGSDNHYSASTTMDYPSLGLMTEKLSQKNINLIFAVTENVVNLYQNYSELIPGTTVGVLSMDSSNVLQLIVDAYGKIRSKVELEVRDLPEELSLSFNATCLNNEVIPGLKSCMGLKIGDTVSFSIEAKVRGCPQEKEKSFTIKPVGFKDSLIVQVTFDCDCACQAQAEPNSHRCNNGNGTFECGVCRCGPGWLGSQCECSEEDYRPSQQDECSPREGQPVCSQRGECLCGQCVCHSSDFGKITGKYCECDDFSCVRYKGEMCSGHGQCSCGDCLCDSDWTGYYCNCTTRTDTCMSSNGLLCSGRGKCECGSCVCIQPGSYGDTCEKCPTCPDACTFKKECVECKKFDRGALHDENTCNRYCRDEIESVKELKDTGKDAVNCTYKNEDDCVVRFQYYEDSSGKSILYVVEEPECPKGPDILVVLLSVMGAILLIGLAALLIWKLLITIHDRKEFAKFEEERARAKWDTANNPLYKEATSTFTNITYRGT
T1 sequence (P06756 whole entry): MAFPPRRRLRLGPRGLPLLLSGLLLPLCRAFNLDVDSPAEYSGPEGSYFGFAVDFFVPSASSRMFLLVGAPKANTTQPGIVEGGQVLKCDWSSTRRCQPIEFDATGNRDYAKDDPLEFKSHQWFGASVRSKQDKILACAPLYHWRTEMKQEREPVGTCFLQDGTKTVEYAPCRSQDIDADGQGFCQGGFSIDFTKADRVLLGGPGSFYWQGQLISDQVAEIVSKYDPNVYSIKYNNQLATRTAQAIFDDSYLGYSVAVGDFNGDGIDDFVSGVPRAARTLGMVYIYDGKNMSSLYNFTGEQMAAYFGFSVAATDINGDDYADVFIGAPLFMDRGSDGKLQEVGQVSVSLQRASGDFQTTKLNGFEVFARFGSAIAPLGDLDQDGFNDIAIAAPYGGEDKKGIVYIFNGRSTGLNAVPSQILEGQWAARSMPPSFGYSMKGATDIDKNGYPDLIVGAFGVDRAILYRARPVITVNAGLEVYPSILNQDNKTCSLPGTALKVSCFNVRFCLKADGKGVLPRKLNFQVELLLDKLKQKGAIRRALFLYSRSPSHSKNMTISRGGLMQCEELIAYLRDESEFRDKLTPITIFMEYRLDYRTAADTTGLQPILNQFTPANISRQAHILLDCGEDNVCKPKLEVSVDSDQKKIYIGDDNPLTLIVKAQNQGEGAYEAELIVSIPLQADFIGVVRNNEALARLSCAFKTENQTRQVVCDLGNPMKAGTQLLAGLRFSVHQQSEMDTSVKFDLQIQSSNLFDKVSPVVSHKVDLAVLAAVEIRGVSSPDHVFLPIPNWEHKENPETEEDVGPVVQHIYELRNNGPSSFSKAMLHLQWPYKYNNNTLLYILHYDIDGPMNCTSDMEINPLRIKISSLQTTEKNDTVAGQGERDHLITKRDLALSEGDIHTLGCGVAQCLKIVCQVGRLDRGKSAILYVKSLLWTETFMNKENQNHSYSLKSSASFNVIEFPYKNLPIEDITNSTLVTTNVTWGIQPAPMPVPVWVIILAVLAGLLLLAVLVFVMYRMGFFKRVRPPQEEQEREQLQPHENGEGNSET
Description: as §1, §2

Assay [3] concerns the target T1, HEK-293-αVβ3 cells. The experiment in a line: αVβ3 Cell Adhesion to Fibrinogen Assay. Also on record: IC50; other: dose reducing by 50% the adhesion of HEK-293-αVβ3 cells to fibrinogen; untreated cells 100% adhesion, 10 mM EDTA 0%. The following applies: dose reducing by 50% the adhesion of HEK-293-αVβ3 cells to fibrinogen; separate determinations listed.
Description: as §1
αVβ3 Cell Adhesion to Fibrinogen Assay. Polystyrene 96-well microtiter plates (Costar, 3590) are precoated with 3.5 μg/mL of purified fibrinogen (Enzyme Research Laboratories) in 0.15 M NaCl, 0.01 M Tris/HCL, pH 7.4 for 1 hour at 37° C. The wells are then washed and incubated with HEPES-Buffered Modified Tyrode's solution (HBMT; 0.128 M NaCl, 10 mM HEPES, 12 mM NaHCO3, 0.4 mM NaH2PO4, 2.7 mM KCl, 0.35% bovine serum albumin (Fisher), 0.1% glucose, pH 7.4) for 1 hour at room temperature or overnight at 4° C. Wells are washed with HBMT containing 1 mM Mg2+ and 2 mM Ca2+ and then 50 μL of HEK-293-αVβ3 cells that have been pretreated with the compound to be tested for 20 minutes at room temperature are added to each well at a concentration of 3,000 cells/μL. After 30-32 minutes the wells are washed with HBMT containing Ca2+ and Mg2+ three times and then the adherent cells are lysed and the acid phosphatase activity that is released is measured by: 1. adding phosphatase substrate (Sigma EC 224-246-5) at 2 mg/mL in 0.1 M Na citrate, pH 5.6, 0.1% triton X-100 for 1 hour at room temperature; 2. stopping the reaction by adding 50 μL of 2 M NaOH; and 3. analyzing the samples in a spectrophotometer at 405 nm. In each assay, 10 mM EDTA is used as a positive control and untreated cells are used as a negative control. The IC50 is the dose of test compound that reduces by 50% the adhesion of the HEK-293-αVβ3 cells, taking the results with untreated cells as 100% and the results in the presence of EDTA as 0%. In some instances more than one IC50 determination was made, in which case, results of separate determinations are reported. IC50's were not determined for all compounds in the table; for some of these test compounds the inhibition at specific doses are reported. In some instances, the test compound produced a greater reduction than 10 mM EDTA, and these are shown as negative numbers.

As usually defined, the EC50 is the midpoint of the concentration-response curve. The low end stands for greater potency, the high end for weaker potency. One may read the IC50 as the concentration that gives 50% inhibition. A high value points to lower potency.

Several values for one entry are separate records, joined by “and”; a condition that tells them apart may be missing. Equal entries are not always repeated.

Consider `O=C(O)CN(CCN(CC(=O)O)CC(=O)O)CC(=O)O` [EDTA, reference compound], for which the AP5 expression in the assay with HEK-293-αVβ3 cells [1] is given as 21.8±5.9 arbitrary fluorescence units.
In the case of `COc1ccc(C(CCNC(=O)CCCCc2ccc3c(n2)NCCC3)C(=O)O)cn1` (centres unmarked) [Example 79, 2-(6-methoxy-3-pyridyl)-4-[5-(5,6,7,8-tetrahydro-1,8-naphthyridin-2-yl)pentanoylamino]butanoic acid], at HEK-293-αVβ3 cells [2], the activation at 10 µM turned out to be 19% and the EC50 was over 10 µM. Further, on HEK-293-αVβ3 cells [3], the IC50 amounted to 0.532 µM.
For `O=C(CCCCc1ccc2c(n1)NCCC2)NCCC(C(=O)O)c1ccc(Oc2ccccc2)nc1` (centres unmarked) [Example 80, 2-(6-phenoxy-3-pyridyl)-4-[5-(5,6,7,8-tetrahydro-1,8-naphthyridin-2-yl)pentanoylamino]butanoic acid], at HEK-293-αVβ3 cells [2], the activation at 10 µM came to 7.5% and the EC50 was over 10 µM. For the same compound, the IC50 on HEK-293-αVβ3 cells [3] is 1.57 µM and 0.429 µM.
Take `O=C(CCCCc1ccc2c(n1)NCCC2)NCCC(Nc1ncc(-c2ccccc2)cn1)C(=O)O` (centres unmarked) [Example 81, 2-[(5-phenylpyrimidin-2-yl)amino]-4-[5-(5,6,7,8-tetrahydro-1,8-naphthyridin-2-yl)pentanoylamino]butanoic acid]: at HEK-293-αVβ3 cells [2], the activation at 10 µM came out at 9% and the EC50 was over 10 µM. Also, the half-inhibitory concentration (IC50) against HEK-293-αVβ3 cells [3] is < 0.1 µM and 0.101 µM and 0.143 µM.
With `O=C(CCCCc1nc2c(cc1C1CC1)CCCN2)NCCC(NC(=O)OCc1ccccc1)C(=O)O` (centres unmarked) [Example 82, 2-(benzyloxycarbonyl-amino)-4-[5-(3-cyclopropyl-5,6,7,8-tetrahydro-1,8-naphthyridin-2-yl)pentanoyl-amino]butanoic acid], on HEK-293-αVβ3 cells [2], the activation at 10 µM worked out at 12% and the EC50 is over 10 µM. On HEK-293-αVβ3 cells [3], this compound returned an IC50 of 0.206 µM.
The like results for `O=C(CCCCc1nc2c(cc1C1CC1)CCCN2)NCCC(Nc1nc2ccccc2o1)C(=O)O` (centres unmarked) [Example 83, 2-(1,3-benzoxazol-2-ylamino)-4-[5-(3-cyclopropyl-5,6,7,8-tetrahydro-1,8-naphthyridin-2-yl)pentanoylamino]butanoic acid] were, in that order, 5%, over 10 µM and 0.128 µM.
As for `O=C(CCCCc1ccc2c(n1)NCCC2)NCCC(C(=O)O)c1cnc2ccccc2c1` (centres unmarked) [Example 84, 2-(quinolin-3-yl)-4-(5-(5,6,7,8-tetrahydro-1,8-naphthyridin-2-yl)pentanamido)butanoic acid], at HEK-293-αVβ3 cells [2], the activation at 10 µM came out at 31% and the EC50 is over 10 µM. This compound yielded an IC50 against HEK-293-αVβ3 cells [3] of 0.121 µM.
The like results for `O=C(CCCCc1ccc2c(n1)NCCC2)NCC[C@@H](Nc1nc2ccccc2o1)C(=O)O` [Example 85, (R)-2-(benzo[d]oxazol-2-ylamino)-4-(5-(5,6,7,8-tetrahydro-1,8-naphthyridin-2-yl)pentanamido)butanoic acid] were, in that order, 5%, over 10 µM and 0.151 µM.
Regarding `O=C(CCCCc1ccc2c(n1)NCCC2)NCC[C@@H](NC(=O)c1nc2ccccc2s1)C(=O)O` [Example 86, (R)-2-(benzo[d]thiazole-2-carboxamido)-4-(5-(5,6,7,8-tetrahydro-1,8-naphthyridin-2-yl)pentanamido)butanoic acid], on HEK-293-αVβ3 cells [2], the activation at 10 µM amounted to 7% and the EC50 was over 10 µM. Further, the IC50 at HEK-293-αVβ3 cells [3] was 0.129 µM and 0.169 µM.
Turning to `O=C(CCCCc1ccc2c(n1)NCCC2)NCC[C@H](Nc1nc2ccccc2o1)C(=O)O` [Example 87, (2S)-2-(1,3-benzoxazol-2-ylamino)-4-[5-(5,6,7,8-tetrahydro-1,8-naphthyridin-2-yl)pentanoylamino]butanoic acid], at HEK-293-αVβ3 cells [2], the activation at 10 µM came out at 14% and the EC50 is over 10 µM. Also, at HEK-293-αVβ3 cells [3], inhibition was half-maximal at 0.187 µM (IC50).
On HEK-293-αVβ3 cells [2], `O=C(CCCCc1ccc2c(n1)NCCC2)NCC[C@@H](Nc1ncc(-c2ccccc2)cn1)C(=O)O` [Example 91, (R)-2-((5-phenylpyrimidin-2-yl)amino)-4-(5-(5,6,7,8-tetrahydro-1,8-naphthyridin-2-yl)pentanamido)butanoic acid] gave a concentration for a half-maximal effect (EC50) of over 10 µM. On HEK-293-αVβ3 cells [3], this compound gave an IC50 of 0.534 µM.
In the same order, the values of `O=C(CCCCc1ccc2c(n1)NCCC2)NCC[C@H](Nc1ncc(-c2ccccc2)cn1)C(=O)O` [Example 92, (2S)-2-[(5-phenylpyrimidin-2-yl)amino]-4-[5-(5,6,7,8-tetrahydro-1,8-naphthyridin-2-yl)pentanoylamino]butanoic acid] are over 10 µM and 0.201 µM.
